Conditions in the first series: not given
On to `FC(F)C(F)Cl` (stereo unspecified), for which the boiling point amounted to 17 °C.
`CCCCCCCCCCCCCCCCC(=O)OC` showed a melting point of 30 °C.
As for `Cc1cc(O)ccc1N=Nc1ccccc1`, the melting point is 109 °C.
In the case of `O=C(O)c1ccccc1Cl`, the boiling point is 287 °C, the log10 vapour pressure (mmHg) is -3.18, the melting point is 140 °C and the ready biodegradability entry is reported as “not readily biodegradable”.
With `COc1ccc(Nc2ccc(N)cc2)cc1`, the melting point was found to be 102 °C.
As to `C=CCc1ccc(OC=O)c(OC)c1`, the boiling point is 270 °C.
Regarding `OCC1c2ccccc2-c2ccccc21`, the melting point amounted to 106 °C.
As for `COP(=O)(OC)OC(Br)C(Cl)(Cl)Br` (stereo unspecified), the log10 Koc (L/kg) is 2.26, the log10 vapour pressure (mmHg) is -3.7 and the melting point was 27 °C.
The compound `O=C(O)C(Cc1ccccc1)Cc1ccccc1` showed a melting point of 90 °C.
For the compound `CCCCCOc1ccccc1`, the boiling point was 200 °C.
With `CNC(=O)O/N=C/C(C)(C)S(C)=O` (stereo unspecified), the log10 Koc (L/kg) amounted to 0.56 and the log10 vapour pressure (mmHg) was -4.
As for `CC(C)(O)CCCC1=CCC(C=O)CC1` (stereo unspecified), the melting point was -30 °C and the ready biodegradability result is recorded as “readily biodegradable”.
For `CN=C(O)Oc1cccc(C)c1`, the log10 vapour pressure (mmHg) is -2.97, the melting point was 76.5 °C and the ready biodegradability result is “not readily biodegradable”.
In the case of `CCCCc1cccc2ccccc12`, the boiling point is 289 °C and the melting point was -19.8 °C.
For `Clc1cccnc1`, the boiling point came to 148 °C.
In turn, `CCCCCCCCCCCS` had a boiling point of 257 °C and a melting point of -3 °C.
Taken in the same sequence, the figures for `CCCCC(C)C(C)C` (stereo unspecified) were 140 °C and -116 °C.
`CCCCCCCCCC(C)O` (stereo unspecified): the log10 vapour pressure (mmHg) was -1.48.
`O=C(O)COc1nc(Cl)c(Cl)cc1Cl` showed a log10 Koc (L/kg) of 1.67, a log10 vapour pressure (mmHg) of -5.9 and a melting point of 149 °C.
As to `BrCCBr`, the boiling point was 132 °C, the log10 Henry constant (atm·m³/mol) was -3.19, the log10 Koc (L/kg) stood at 1.71 and the log10 vapour pressure (mmHg) is 1.05. The melting point is 9.9 °C and the ready biodegradability entry is on record as “not readily biodegradable”.
`CCC(CO)O[N+](=O)[O-]` (stereo unspecified) yielded a log10 Henry constant (atm·m³/mol) of -6.78.
For `O=[N+]([O-])c1cc(F)ccc1F`, the boiling point was determined as 206 °C and the melting point was -11.7 °C.
In the case of `CCC(CC1CCCCC1)CC1CCCCC1`, the boiling point turned out to be 306 °C.
Compound `CCC(=O)OCCC(C)C` returned a boiling point of 160 °C.
In turn, `CCCC(Br)CBr` (stereo unspecified) registered a log10 vapour pressure (mmHg) of 0.153.
`Cc1ccc(C)c(N)c1`: the boiling point was 214 °C, the log10 vapour pressure (mmHg) was -0.824, the melting point came out at 15.5 °C and the ready biodegradability entry was “not readily biodegradable”.
For `Cn1cnc2nc(N)[nH]c(=O)c21`, the melting point is 370 °C.
In the case of `BrC(Br)(Br)Br`, the boiling point stood at 190 °C, the log10 vapour pressure (mmHg) was -0.569 and the melting point worked out at 90.1 °C.
Take `C1CCC2=NCCCN2CC1`: the ready biodegradability result is “not readily biodegradable”.
In turn, `CCNCCO` yielded a boiling point of 170 °C.
Turning to `CCCCCCC1CCCC1`, the boiling point was found to be 203 °C and the melting point was -73 °C.
`CCN(CC)c1ccccc1C`: the boiling point was 209 °C and the melting point was -60 °C.
`CCOC(=O)C(C)(C)C` showed a boiling point of 118 °C, a log10 vapour pressure (mmHg) of 1.25 and a melting point of -89.5 °C.
Compound `Ic1ccc(I)cc1` gave a boiling point of 285 °C and a melting point of 132 °C.
Regarding `CNC(=O)Oc1cc(C)c(C)c(C)c1`, the log10 Koc (L/kg) amounted to 2.6, the log10 vapour pressure (mmHg) was -4.29 and the melting point amounted to 109 °C.
In turn, `Clc1ccncc1` yielded a boiling point of 148 °C and a melting point of -43.5 °C.
In the case of `O=Cc1ccc(CO)o1`, the melting point stood at 31.5 °C.
For `ClCCCCCCCCCCl`, the boiling point is 260 °C.
Take `CC[C@H]1CC[C@H](C)C1`: the boiling point came out at 121 °C and the melting point is -108 °C.
In turn, `COc1ccc(C(=O)O)c(OC)c1` showed a melting point of 109 °C.
The compound `O=C(O)c1cc(=O)c2cccc(O)c2[nH]1` came in with a melting point of 289 °C.
In the case of `CC(Cl)Cl`, the boiling point was found to be 57.4 °C, the log10 Henry constant (atm·m³/mol) is -2.25, the log10 Koa turned out to be 2.41 and the log10 Koc (L/kg) was 1.48. Besides, the log10 vapour pressure (mmHg) amounted to 2.36, the melting point was -96.9 °C and the ready biodegradability entry is “not readily biodegradable”.
As for `CC1(c2ccccc2)C(=O)NC(=O)NC1=O`, the melting point stood at 220 °C.
With `O=C(c1ccccc1)c1cccnc1`, the boiling point stood at 307 °C and the melting point stood at 38 °C.
The compound `COc1cc(C)ccc1C` returned a boiling point of 194 °C.
Regarding `CC=Cc1ccc(OC)cc1`, the boiling point is 234 °C, the log10 vapour pressure (mmHg) was -1.15 and the melting point amounted to 21.3 °C.
On to `CCC(CC(C)C)C(C)C` (stereo unspecified), for which the boiling point came to 154 °C.

The series is the same for the next values; noted with them: fish.
In turn, `O=C(O)c1ccccc1Cl` had a log10 BCF of 1.
For the compound `CCCCC(C)C(C)C` (stereo unspecified), the log10 biotransformation half-life (days) was 1.28.
Consider `BrCCBr`, for which the log10 BCF is 1.18 and the log10 biotransformation half-life (days) was -0.83.
With `Cc1ccc(C)c(N)c1`, the log10 BCF worked out at 0.58 and the log10 biotransformation half-life (days) is -0.99.

(Values after the OPERA property sets (Mansouri et al. 2018).)
